Patent EP0452067A2, “Oligosaccharide compounds and preparation thereof” (GENZYME CORPORATION, priority 1990, dated 1991)

Assays:
Pancreatic Amylase = target: T1, Pancreatic Amylase (Homo sapiens, UniProt P04746); experiment: Cleavage pattern of substrates on hydrolysis with pancreatic amylase
T1 sequence (P04746 16-511): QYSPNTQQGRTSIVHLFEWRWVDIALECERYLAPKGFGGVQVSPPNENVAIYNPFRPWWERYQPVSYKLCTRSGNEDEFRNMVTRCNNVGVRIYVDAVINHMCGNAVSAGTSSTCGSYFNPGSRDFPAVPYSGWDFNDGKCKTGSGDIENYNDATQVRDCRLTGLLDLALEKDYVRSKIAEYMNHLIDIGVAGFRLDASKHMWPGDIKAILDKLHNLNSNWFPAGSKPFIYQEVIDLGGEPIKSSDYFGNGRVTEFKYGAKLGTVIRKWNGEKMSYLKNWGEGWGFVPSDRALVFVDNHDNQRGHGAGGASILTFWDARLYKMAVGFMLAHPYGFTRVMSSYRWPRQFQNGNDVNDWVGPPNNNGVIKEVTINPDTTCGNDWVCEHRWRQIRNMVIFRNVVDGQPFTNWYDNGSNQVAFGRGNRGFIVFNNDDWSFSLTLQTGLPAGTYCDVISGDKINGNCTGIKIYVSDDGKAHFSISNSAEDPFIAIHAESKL

[1] = test system: pancreatic and salivary α-amylase; experiment: Cleavage pattern, both amylases; format: biochemical; details: range over pancreatic and salivary α-amylase
α-amylase = experiment: Determination of kinetic and binding values of α-amylase substrates; format: biochemical; details: for Km: 50 mM PIPES pH 7.0, 50 mM NaCl, 5 mM CaCl₂, glucoamylase and maltase, 27°C, corrected for contaminating unblocked substrate
Experimental: All reactions were carried out in 50 mM PIPES buffer (pH 7.0) containing 50 mM NaCl, 5 mM CaCl₂, 10 units glucoamylase and 25 units maltase at 27°C. Each substrate concentration was run in duplicate and at least eight concentrations were examined for each substrate. Data from the reaction progress curves were fit to the Michaelis-Menten equation using Marquardt analysis. The Km values were corrected for contaminating unblocked substrate. The values V and K for the G₇ substrates are the average of two experiments. The error in the kinetic parameters from each experiment was less than 5% from the average reported.

SMILES	Cleavage Position (% of total) G 1/2 (Pancreatic Amylase)	Cleavage Position (% of total) G 2/3 (Pancreatic Amylase)	Cleavage Position (% of total) G 3/4 (Pancreatic Amylase)	Cleavage Position (% of total) G 5/6 (Pancreatic Amylase)	Total Hydrolysis (%) (Pancreatic Amylase)	cleaved between glucoses 2 and 3 [1]	Km (α-amylase)	cleaved between glucoses 3 and 4 [1]	Cleavage Position (% of total) G 4/5 (Pancreatic Amylase)	Vmax, faster than the Bz-G₇-PNP (α-amylase; relative to Bz-G₇-PNP)	cleaved between glucose units 1-2 [1]	V/K greater than that of the Bz-G₅-PNP (α-amylase; relative to Bz-G₅-PNP)
O=[N+]([O-])c1ccc(O[C@H]2O[C@H](CO)[C@@H](O[C@H]3O[C@H](CO)[C@@H](O[C@H]4O[C@H](CO)[C@@H](O[C@H]5O[C@H](CO)[C@@H](O[C@H]6O[C@H](CO)[C@@H](O[C@H]7O[C@H](CO)[C@@H](O[C@H]8O[C@@H]9COC(c%10ccccc%10)O[C@H]9[C@H](O)[C@H]8O)[C@H](O)[C@H]7O)[C@H](O)[C@H]6O)[C@H](O)[C@H]5O)[C@H](O)[C@H]4O)[C@H](O)[C@H]3O)[C@H](O)[C@H]2O)cc1 (stereo partly drawn) [Substrate 2, 4,6-0-benzylidene-4-nitrophenyl-α-D-maltoheptaoside]	4.0 % of total	63.1 % of total	18.9 % of total	13.6 % of total	15.1%	63 - 74%	92 µM	–	–	–	–	–
O=[N+]([O-])c1ccc(O[C@H]2O[C@H](CO)[C@@H](O[C@H]3O[C@H](CO)[C@@H](O[C@H]4O[C@H](CO)[C@@H](O[C@H]5O[C@H](CO)[C@@H](O[C@H]6O[C@@H]7COC(c8ccccc8)O[C@H]7[C@H](O)[C@H]6O)[C@H](O)[C@H]5O)[C@H](O)[C@H]4O)[C@H](O)[C@H]3O)[C@H](O)[C@H]2O)cc1 (stereo partly drawn) [Substrate 4, 4,6-0-benzylidene-4-nitrophenyl-α-D-maltopentaoside]	2.5 % of total	19.4 % of total	78.1 % of total	–	42.9%	–	183 µM	78 - 84%	–	–	–	–
CC(C)(C)[Si](C)(C)OC[C@H]1O[C@H](O[C@H]2[C@H](O)[C@@H](O)[C@@H](O[C@H]3[C@H](O)[C@@H](O)[C@@H](O[C@H]4[C@H](O)[C@@H](O)[C@@H](O[C@H]5[C@H](O)[C@@H](O)[C@@H](O[C@H]6[C@H](O)[C@@H](O)[C@@H](O[C@H]7[C@H](O)[C@@H](O)[C@@H](Oc8ccc([N+](=O)[O-])cc8)O[C@@H]7CO)O[C@@H]6CO)O[C@@H]5CO)O[C@@H]4CO)O[C@@H]3CO)O[C@@H]2CO)[C@H](O)[C@@H](O)[C@@H]1O [Substrate 1, 6-0-t-butyldimethylsilyl-4-nitrophenyl-α-D-maltoheptaoside]	1.1 % of total	13.3 % of total	65.6 % of total	–	69.9%	–	–	66 - 67%	19.9 % of total	46%	–	–
CC(C)(C)[Si](C)(C)OC[C@H]1O[C@H](O[C@H]2[C@H](O)[C@@H](O)[C@@H](O[C@H]3[C@H](O)[C@@H](O)[C@@H](O[C@H]4[C@H](O)[C@@H](O)[C@@H](O[C@H]5[C@H](O)[C@@H](O)[C@@H](Oc6ccc([N+](=O)[O-])cc6)O[C@@H]5CO)O[C@@H]4CO)O[C@@H]3CO)O[C@@H]2CO)[C@H](O)[C@@H](O)[C@@H]1O [Substrate 3, 6-0-t-butyldimethylsilyl-4-nitrophenyl-α-D-maltopentaoside]	59.4 % of total	40.6 % of total	–	–	31.6%	40 - 60%	87 µM	–	–	–	40 - 60%	19%
